From ChEMBL document CHEMBL1201862, “PubChem BioAssay data set” (2004)
The source made the active and inactive calls.

Key:
[1] = target: Sphingosine 1-phosphate receptor 2 (Homo sapiens, UniProt O95136); assay: Dose Response Cell Based Assay for Antagonists of the S1P2 Receptor. [Related pubchem assays: 856, 736 ]; assay type: functional
[2] = target: Galanin receptor type 2 (Homo sapiens, UniProt O43603); assay: Dose Response cell-based high-throughput screening assay to identify antagonists of galanin receptor 2 (GALR2). [Related pubchem assays: 828, 866 ]; assay type: functional
[3] = target: Protein Tat (Human immunodeficiency virus type 1 group M subtype B (isolate HXB2)(HIV-1), UniProt P04608); assay type: functional;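 also: tat binding to TAR RNA read out by fluorescence polarization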
[4] = target: T1, COUP transcription factor 2 (Homo sapiens, UniProt P24468); assay: Luminescence-based cell-based high throughput dose response assay to identify inhibitors of COUP-TFII (NR2F2).; assay type: functional;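 also: HEK293 cells transiently cotransfected with COUP-TFII expression vector and reporter; luciferase reporter luminescence driven by COUP-TFII from the pX2-168 reporter plasmid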
T1 sequence (P24468 whole entry): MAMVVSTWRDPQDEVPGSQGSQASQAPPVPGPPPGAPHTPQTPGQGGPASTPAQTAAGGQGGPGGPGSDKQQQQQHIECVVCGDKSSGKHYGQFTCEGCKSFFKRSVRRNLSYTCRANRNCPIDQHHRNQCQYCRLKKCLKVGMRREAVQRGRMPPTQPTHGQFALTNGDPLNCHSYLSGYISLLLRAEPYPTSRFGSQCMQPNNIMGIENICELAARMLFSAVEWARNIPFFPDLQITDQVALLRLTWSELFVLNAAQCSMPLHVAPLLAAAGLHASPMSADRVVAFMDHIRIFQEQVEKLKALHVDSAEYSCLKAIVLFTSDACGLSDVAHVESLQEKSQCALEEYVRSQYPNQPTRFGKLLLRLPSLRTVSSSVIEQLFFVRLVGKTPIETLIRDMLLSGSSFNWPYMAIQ

[5] = HEK-293T cell viability reduction – luminescence, B-cell screen hits, cytotoxicity control for BCR NF-kB inhibitor project, dose response (AID 489021); assay type: functional, cell-based;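 also: HEK-293T cells carrying an NF-kB luciferase reporter; cells exposed to compound for about 14 hours before viability readout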
[6] = target: Mitogen-activated protein kinase 10 (Homo sapiens, UniProt P53779); assay: Dose response biochemical screening assay for inhibitors of c-Jun N-Terminal Kinase 3 (JNK3). [Related pubchem assays: 746 ]
[7] = target: T2, Microphthalmia-associated transcription factor (Homo sapiens, UniProt O75030); assay: reducers of TRPM1 reporter luminescence, concentration series – cell-based, SK-MEL-5, cherry-picked, set 3, MITF inhibitor project, dose response (AID 493073); assay type: functional;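 also: SK-MEL-5 melanoma cells with luciferase driven by the MITF target TRPM1 promoter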
T2 sequence (O75030 whole entry): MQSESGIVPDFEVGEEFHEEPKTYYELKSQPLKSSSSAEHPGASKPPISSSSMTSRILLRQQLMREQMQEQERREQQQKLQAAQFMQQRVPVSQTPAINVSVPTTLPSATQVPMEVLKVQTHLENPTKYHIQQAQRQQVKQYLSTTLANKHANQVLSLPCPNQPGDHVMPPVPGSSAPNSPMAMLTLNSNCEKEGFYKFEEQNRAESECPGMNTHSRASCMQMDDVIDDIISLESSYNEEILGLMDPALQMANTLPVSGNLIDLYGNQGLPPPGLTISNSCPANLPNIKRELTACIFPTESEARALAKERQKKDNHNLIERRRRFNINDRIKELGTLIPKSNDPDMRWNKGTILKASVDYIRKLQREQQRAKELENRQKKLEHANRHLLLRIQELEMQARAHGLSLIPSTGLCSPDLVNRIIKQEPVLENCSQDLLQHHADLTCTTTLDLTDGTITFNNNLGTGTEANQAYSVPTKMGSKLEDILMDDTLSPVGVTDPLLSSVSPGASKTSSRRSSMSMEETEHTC

[8] = Vero E6 cell cytotoxicity, dose response, cytotoxicity control for non-replicating M. tuberculosis project, secondary assay (AID 492998); assay type: functional, VeroE6; conditions: Vero C1008
[9] = cells; assay type: functional
[10] = target: Paired box protein Pax-8 (Homo sapiens, UniProt Q06710); assay: PAX8 transcriptional activity inhibition in RMG-I – RMG-I cells, luciferase, cherry-pick, dose response (AID 687027); assay type: functional, cell-based;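 also: luciferase reporter driven by Pax8 target thyroperoxidase promoter measured by SteadyGlo luminescence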
[11] = reduced cellular PGC1a acetyl-lysine signal – cell-based, cherry-picked samples, dose response (AID 720514); assay type: functional;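 also: potency may reflect raised or lowered acetylation signal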
[12] = HepG2 cell cytotoxicity, dose response, cytotoxicity control for non-replicating M. tuberculosis project (AID 489018); assay type: functional; conditions: Mycobacterium tuberculosis
[13] = THP-1 cell cytotoxicity, dose response, cytotoxicity control for non-replicating M. tuberculosis project (AID 489025); assay type: functional
[14] = target: Genome polyprotein (Hepatitis C virus, UniProt Q2Q167); assay: disruption of hepatitis C core self-association – biochemical, TR-FRET, dose response (AID 2159); parameters: species or system Hepacivirus hominis;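 also: blocks dimerization of HCV core protein measured by TR-FRET between tagged core106 pairs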
[15] = target: Major prion protein (Homo sapiens, UniProt P04156); assay type: functional, cell-based
[16] = cells
[17] = viability of uninfected HEp-2 cells – cell-based, HTS, cytotoxicity control for RSV inhibitor project, dose response (AID 2410); assay type: functional; conditions: human respiratory syncytial virus
[18] = target: Glucose-6-phosphate 1-dehydrogenase (Homo sapiens, UniProt P11413); assay: inhibition of Homo sapiens G6PD, dose series – biochemical, fluorescence, selectivity assay for P. falciparum G6PD inhibitor project, dose response (AID 504792); assay type: functional
[19] = target: Heat shock protein HSP 90-alpha (Homo sapiens, UniProt P07900); assay: Luminescence-based dose response biochemical high throughput screening assay for inhibitors of the Heat Shock Protein 90 (HSP90). [Related pubchem assays: 1831 (Summary AID.), 1846 (Confirmation screen.), 1789 (Primary screen.)]
[20] = target: Large T antigen (Simian virus 40, UniProt P03070); assay type: functional, Betapolyomavirus macacae;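 also: Confirmatory-stage PubChem screen for compounds that inhibit SV40 T antigen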

For `O=C(Nc1ccc(F)cc1)c1sccc1S(=O)(=O)Cc1cccc(C(F)(F)F)c1`, the IC50 [1] was 18.4 µM (not active).
With `O=C(Nc1ccc2[nH]c(-c3cccnc3)nc2c1)C12CC3CC(CC(C3)C1)C2` the IC50 [2] was > 42 µM (not active).
With `CCOC(=O)C1=C(O)/C(=C/c2ccc(CNC(=O)C(=O)Nc3ccc(C)cc3)o2)N=C1C` the IC50 [3] was 47.8 µM (inconclusive).
In the case of `Cc1cc(C)c(S(=O)(=O)NCc2ccncc2)c(C)c1`, the IC50 [4] is reported as 4.96 µM (active), the IC50 [5] is reported as > 80 µM (inactive) and the IC50 [2] is reported as > 42 µM (not active).
In the case of `Cc1cccc(-n2ncc3c(NCc4cccs4)ncnc32)c1`, the IC50 [6] is reported as 72 µM (not active).
For `Cn1nnnc1Sc1ncnc2scc(-c3ccc[nH]3)c12`, the AC50 [7] was 7.32 µM (active), the CC50 [8] was 13 µM (active) and the IC50 [9] was 15.2 µM (active). The AC50 [10] was 2.96 µM (active), the AC50 [11] was 7.84 µM (active) and the CC50 [12] was 15.8 µM (active). For the same compound, the CC50 [13] was 14.8 µM (active).
With `Brc1cc2[nH]cnc2c2ccccc12` the IC50 [14] was > 49.8 µM (not active), the IC50 [15] was 5.96 µM (active) and the IC50 [16] was > 138 µM (inactive). For the same compound, the CC50 [17] was 37.8 µM (active) and the IC50 [18] was > 80 µM (inactive).
With `O=c1c2c(nc3n1CCCCC3)sc1c(O)cccc12` the IC50 [6] was 55.7 µM (not active).
For `C=CCc1ccc(OCc2ccc(C(=O)OC)o2)c(OC)c1`, the IC50 [19] was 7.02 µM (active).
For `CC(NC(=O)Nc1ccc(O)cc1)(C(F)(F)F)C(F)(F)F`, the IC50 [20] was 14.3 µM (active) and the IC50 [3] was 44.8 µM (inconclusive).
